Data from patent US10899755B2, “Benzothiazole compounds and uses thereof” (Incyte Corporation, priority 2018, dated 2021).

Target: HPK1 (Homo sapiens, UniProt Q92918)
Test: HPK1 Kinase Binding Assay
Conditions: active HPK1 (SignalChem M23-11G), tracer 222, LanthaScreen Eu-Anti GST antibody, one hour incubation at 25° C.
Experimental: A stock solution of 1 mM test compound was prepared in DMSO. The compound plate was prepared by 3-fold and 11-point serial dilutions. 0.1 μL of the compound in DMSO was transferred from the compound plate to the white 384 well polystyrene plates. The assay buffer contained 50 mM HEPES, pH 7.5, 0.01% Tween-20, 5 mM MgCl2, 0.01% BSA, and 5 mM DTT. 5 μL of 4 nM active HPK1 (SignalChem M23-11G) prepared in the buffer was added to the plate. The enzyme concentration given was based on the given stock concentration reported by the vender. […] After one hour incubation at 25° C., the plates were read on a PHERAstar FS plate reader (BMG Labtech). Ki values were determined.

Sequence of HPK1 (Q92918 whole entry, looked up): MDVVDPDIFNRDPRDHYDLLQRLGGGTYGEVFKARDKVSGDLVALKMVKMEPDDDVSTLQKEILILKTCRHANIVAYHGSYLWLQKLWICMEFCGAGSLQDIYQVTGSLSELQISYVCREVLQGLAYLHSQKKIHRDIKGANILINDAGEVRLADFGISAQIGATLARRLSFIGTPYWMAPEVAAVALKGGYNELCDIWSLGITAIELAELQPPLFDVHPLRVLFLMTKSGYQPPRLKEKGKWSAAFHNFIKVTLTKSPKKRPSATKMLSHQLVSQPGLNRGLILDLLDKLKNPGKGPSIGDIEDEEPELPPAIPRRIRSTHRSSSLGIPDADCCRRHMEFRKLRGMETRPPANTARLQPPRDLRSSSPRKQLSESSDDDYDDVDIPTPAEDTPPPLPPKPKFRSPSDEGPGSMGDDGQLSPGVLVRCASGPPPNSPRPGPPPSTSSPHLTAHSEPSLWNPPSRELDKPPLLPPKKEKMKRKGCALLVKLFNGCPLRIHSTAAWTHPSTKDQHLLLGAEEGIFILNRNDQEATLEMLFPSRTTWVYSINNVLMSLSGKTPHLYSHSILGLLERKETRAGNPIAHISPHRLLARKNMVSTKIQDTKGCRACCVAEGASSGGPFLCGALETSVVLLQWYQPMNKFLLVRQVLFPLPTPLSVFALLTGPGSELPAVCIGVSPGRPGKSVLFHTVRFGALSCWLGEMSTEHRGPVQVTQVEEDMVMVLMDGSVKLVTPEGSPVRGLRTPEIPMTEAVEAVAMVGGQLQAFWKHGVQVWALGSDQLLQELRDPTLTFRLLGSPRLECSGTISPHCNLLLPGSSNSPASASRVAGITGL

Row | Ki [nM] | Structure (SMILES)
1 | < 100 | COc1ccc(-c2cnn(C)c2)c(F)c1-c1nccc(C(=O)Nc2ccc3sc(C)nc3c2N2C[C@H](N)C[C@H]2CO)n1 [Example 15, N-(4-((2S,4R)-4-Amino-2-(hydroxymethyl)pyrrolidin-1-yl)-2-methylbenzo[d]thiazol-5-yl)-2-(2-fluoro-6-methoxy-3-(1-methyl-1H-pyrazol-4-yl)phenyl)pyrimidine-4-carboxamide]
2 | < 100 | COc1ccc(F)c(F)c1-c1nccc(C(=O)Nc2ccc3sc(C)nc3c2N2C[C@H](N)C[C@H]2CO)n1 [Example 16, N-(4-((2S,4R)-4-Amino-2-(hydroxymethyl)pyrrolidin-1-yl)-2-methylbenzo[d]thiazol-5-yl)-2-(2,3-difluoro-6-methoxyphenyl)pyrimidine-4-carboxamide]
3 | < 100 | Cc1nc2c(N3C[C@@H]4CC[C@H]3CN4)c(NC(=O)c3ccnc(-c4c(F)cccc4F)n3)ccc2s1 [Example 31, N-(4-((1S,4S)-2,5-Diazabicyclo[2.2.2]octan-2-yl)-2-methylbenzo[d]thiazol-5-yl)-2-(2,6-difluorophenyl)pyrimidine-4-carboxamide]
4 | < 100 | COc1cccc(F)c1-c1nccc(C(=O)Nc2ccc3sc(C)nc3c2N2C[C@H]3C[C@@H]2CN3C(=O)N2CCOCC2)n1 [Example 25, 2-(2-Fluoro-6-methoxyphenyl)-N-(2-methyl-4((1R,4R)-5-(morpholine-4-carbonyl)-2,5-diazabicyclo[2.2.1]heptan-2-yl)benzo[d]thiazol-5-yl)pyrimidine-4-carboxamide]
5 | < 100 | Cc1nc2c(N3CC[C@@H](N)C3)c(NC(=O)c3ccnc(-c4c(C)cccc4F)n3)ccc2s1 [Example 2, (R)—N-(4-(3-Aminopyrrolidin-1-yl)-2-methylbenzo[d]thiazol-5-yl)-2-(2-fluoro-6-methylphenyl)pyrimidine-4-carboxamide]
6 | < 100 | COc1cccc(F)c1-c1nccc(C(=O)Nc2ccc3sc(C)nc3c2N(C)CC2CCN(C)C2)n1 (centres unmarked) [Example 24, 2-(2-Fluoro-6-methoxyphenyl)-N-(2-methyl-4-(methyl((1-methylpyrrolidin-3-yl)methyl)amino)benzo[d]thiazol-5-yl)pyrimidine-4-carboxamide]
7 | < 100 | COCCc1nc2c(N3CCC[C@H]3CN)c(NC(=O)c3ccnc(-c4c(F)cccc4OC)n3)ccc2s1 [Example 10, (S)—N-(4-(2-(Aminomethyl)pyrrolidin-1-yl)-2-(2-methoxyethyl)benzo[d]thiazol-5-yl)-2-(2-fluoro-6-methoxyphenyl)pyrimidine-4-carboxamide]
8 | < 100 | COc1cccc(F)c1-c1nccc(C(=O)Nc2cc(C)c3sc(C)nc3c2N2CC[C@H](N)C2)n1 [Example 7, (S)—N-(4-(3-Aminopyrrolidin-1-yl)-2,7-dimethylbenzo[d]thiazol-5-yl)-2-(2-fluoro-6-methoxyphenyl)pyrimidine-4-carboxamide]
9 | < 100 | CCc1nc2c(N3C[C@@H](N)C[C@H]3CO)c(NC(=O)c3ccnc(-c4c(F)cccc4OC)n3)ccc2s1 [Example 12, N-(4-((2S,4S)-4-Amino-2-(hydroxymethyl)pyrrolidin-1-yl)-2-ethylbenzo[d]thiazol-5-yl)-2-(2-fluoro-6-methoxyphenyl)pyrimidine-4-carboxamide]
10 | < 100 | COc1cccc(F)c1-c1nccc(C(=O)Nc2cc(C#N)c3sc(C)nc3c2N2CC[C@H](N)C2)n1 [Example 8, (S)—N-(4-(3-Aminopyrrolidin-1-yl)-7-cyano-2-methylbenzo[d]thiazol-5-yl)-2-(2-fluoro-6-methoxyphenyl)pyrimidine-4-carboxamide]
11 | < 100 | COc1cccc(F)c1-c1nccc(C(=O)Nc2ccc3sc(C(C)C)nc3c2N2C[C@@H](N)C[C@H]2CO)n1 [Example 13, N-(4-((2S,4S)-4-Amino-2-(hydroxymethyl)pyrrolidin-1-yl)-2-isopropylbenzo[d]thiazol-5-yl)-2-(2-fluoro-6-methoxyphenyl)pyrimidine-4-carboxamide]
12 | < 100 | COc1cccc(F)c1-c1nccc(C(=O)Nc2cc(Br)c3sc(C)nc3c2N2CC[C@H](N)C2)n1 [Example 6, (S)—N-(4-(3-Aminopyrrolidin-1-yl)-7-bromo-2-methylbenzo[d]thiazol-5-yl)-2-(2-fluoro-6-methoxyphenyl)pyrimidine-4-carboxamide]
13 | < 100 | COc1cccc(F)c1-c1nccc(C(=O)Nc2ccc3sc(C)nc3c2N(C)[C@@H]2CCCNC2)n1 [Example 27]
14 | < 100 | COc1cccc(F)c1-c1nccc(C(=O)Nc2ccc3sc(CN(C)C)nc3c2N2C[C@H](N)C[C@H]2CO)n1 [Example 32, N-(4-((2S,4R)-4-amino-2-(hydroxymethyl)pyrrolidin-1-yl)-2-((dimethylamino)methyl)benzo[d]thiazol-5-yl)-2-(2-fluoro-6-methoxyphenyl)pyrimidine-4-carboxamide]
15 | < 100 | COc1cccc(F)c1-c1nccc(C(=O)Nc2ccc3sc(C)nc3c2N2C[C@H](NC(C)=O)C[C@H]2CO)n1 [Example 20, N-(4-((2S,4R)-4-Acetamido-2-(hydroxymethyl)pyrrolidin-1-yl)-2-methylbenzo[d]thiazol-5-yl)-2-(2-fluoro-6-methoxyphenyl)pyrimidine-4-carboxamide]
16 | < 100 | COCc1nc2c(N3CCC[C@H]3CN)c(NC(=O)c3ccnc(-c4c(F)cccc4OC)n3)ccc2s1 [Example 9, (S)—N-(4-(2-(Aminomethyl)pyrrolidin-1-yl)-2-(methoxymethyl)benzo[d]thiazol-5-yl)-2-(2-fluoro-6-methoxyphenyl)pyrimidine-4-carboxamide]
17 | < 100 | COc1cccc(F)c1-c1nccc(C(=O)Nc2cc(Cl)c3sc(C)nc3c2N2CC[C@H](N)C2)n1 [Example 5, (S)—N-(4-(3-Aminopyrrolidin-1-yl)-7-chloro-2-methylbenzo[d]thiazol-5-yl)-2-(2-fluoro-6-methoxyphenyl)pyrimidine-4-carboxamide]
18 | < 100 | COc1cccc(F)c1-c1nccc(C(=O)Nc2ccc3sc(C)nc3c2N2CCC(c3ccccn3)C2)n1 (centres unmarked) [Example 29, 2-(2-Fluoro-6-methoxyphenyl)-N-(2-methyl-4-(3-(pyridin-2-yl)pyrrolidin-1-yl)benzo[d]thiazol-5-yl)pyrimidine-4-carboxamide]
19 | < 100 | COc1cccc(F)c1-c1nccc(C(=O)Nc2ccc3sc(C)nc3c2N2C[C@H](NC(C)C)C[C@H]2CO)n1 [Example 18, 2-(2-Fluoro-6-methoxyphenyl)-N-(4((2S,4R)-2-(hydroxymethyl)-4-(isopropylamino)pyrrolidin-1-yl)-2-methylbenzo[d]thiazol-5-yl)pyrimidine-4-carboxamide]
20 | < 100 | COc1cccc(F)c1-c1nccc(C(=O)Nc2ccc3sc(C)nc3c2N2CC(F)(F)C[C@H]2CO)n1 [Example 30, (S)—N-(4-(4,4-Difluoro-2-(hydroxymethyl)pyrrolidin-1-yl)-2-methylbenzo[d]thiazol-5-yl)-2-(2-fluoro-6-methoxyphenyl)pyrimidine-4-carboxamide]
21 | < 100 | COc1cccc(F)c1-c1nccc(C(=O)Nc2ccc3sc(C)nc3c2N2C[C@@H](N)C[C@H]2CO)n1 [Example 23, N-(4-((2S,4S)-4-amino-2-(hydroxymethyl)pyrrolidin-1-yl)-2-methylbenzo[d]thiazol-5-yl)-2-(2-fluoro-6-methoxyphenyl)pyrimidine-4-carboxamide]
22 | < 100 | COc1cccc(F)c1-c1nccc(C(=O)Nc2ccc3sc(C)nc3c2N2C[C@H](N)C[C@H]2CO)n1 [Example 11, N-(4-((2S,4R)-4-Amino-2-(hydroxymethyl)pyrrolidin-1-yl)-2-methylbenzo[d]thiazol-5-yl)-2-(2-fluoro-6-methoxyphenyl)pyrimidine-4-carboxamide]
23 | < 100 | COc1cccc(F)c1-c1nccc(C(=O)Nc2ccc3sc(C)nc3c2N2CCC3CCNCC32)n1 (centres unmarked) [Example 28, 2-(2-Fluoro-6-methoxyphenyl)-N-(2-methyl-4-(octahydro-1H-pyrrolo[2,3-c]pyridin-1-yl)benzo[d]thiazol-5-yl)pyrimidine-4-carboxamide]
24 | < 100 | Cc1nc2c(N3CC[C@@H](N)C3)c(NC(=O)c3ccnc(-c4c(F)cccc4F)n3)ccc2s1 [Example 1, (R)—N-(4-(3-Aminopyrrolidin-1-yl)-2-methylbenzo[d]thiazol-5-yl)-2-(2,6-difluorophenyl)pyrimidine-4-carboxamide]
25 | < 100 | COc1cccc(F)c1-c1nccc(C(=O)Nc2ccc3sc(C)nc3c2N2C[C@H](NC3CCOCC3)C[C@H]2CO)n1 [Example 19, 2-(2-Fluoro-6-methoxyphenyl)-N-(4((2S,4R)-2-(hydroxymethyl)-4-(tetrahydro-2H-pyran-4-ylamino)pyrrolidin-1-yl)-2-methylbenzo[d]thiazol-5-yl)pyrimidine-4-carboxamide]
26 | < 100 | COc1cccc(F)c1-c1nccc(C(=O)Nc2ccc3sc(C)nc3c2N2CCOC[C@@H]2CN)n1 [Example 26, (S)—N-(4-(3-(aminomethyl)morpholino)-2-methylbenzo[d]thiazol-5-yl)-2-(2-fluoro-6-methoxyphenyl)pyrimidine-4-carboxamide]
27 | < 100 | CNCc1cc(C)c(-c2nccc(C(=O)Nc3ccc4sc(C)nc4c3N3CC[C@@H](N)C3)n2)c(F)c1 [Example 4, (R)—N-(4-(3-Aminopyrrolidin-1-yl)-2-methylbenzo[d]thiazol-5-yl)-2-(2-fluoro-6-methyl-4-((methylamino)methyl)phenyl)pyrimidine-4-carboxamide]
28 | < 100 | COc1cccc(F)c1-c1nccc(C(=O)Nc2ccc3sc(C)nc3c2N2C[C@H](NS(C)(=O)=O)C[C@H]2CO)n1 [Example 21, 2-(2-Fluoro-6-methoxyphenyl)-N-(4((2S,4R)-2-(hydroxymethyl)-4-(methylsulfonamido)pyrrolidin-1-yl)-2-methylbenzo[d]thiazol-5-yl)pyrimidine-4-carboxamide]
29 | < 100 | COc1cccc(F)c1-c1nccc(C(=O)Nc2ccc3sc(C)nc3c2N2C[C@H]3C[C@@H]2CO3)n1 [Example 22, N-(4-((1R,4R)-2-Oxa-5-azabicyclo[2.2.1]heptan-5-yl)-2-methylbenzo[d]thiazol-5-yl)-2-(2-fluoro-6-methoxyphenyl)pyrimidine-4-carboxamide]
